Data set [1] relates to HL-60 cells. Put plainly: [3-3H]sphinganine uptake and metabolism by HL-60 cells. The class given is in vitro ADME, human. As for the experimental part: Approximately 1×10^6 HL-60 cells in 1 ml of medium were mixed with an equal volume of medium containing 2.5 μm [3-^3 H]sphinganine (equimolar with BSA). After varying time intervals, an aliquot of the cells was removed and counted and a portion was extracted as described below. The extracts were applied to Silica gel H plates and developed in CHCl3 :methanol: 2N NH4 OH (40:10:1, v/v/v), air dried, sprayed with Amplify (Amersham), and subjected to fluorography.

Data set [2] has as its system phorbol ester receptor of HL-60 cells (protein kinase C). Put plainly: Competition for [3H]phorbol dibutyrate binding by HL-60 cells. Also on record: species or system human. Conditions: 12 nM [3H]phorbol dibutyrate, 1 h at 37°; read-out: 50% inhibition of [3H]phorbol dibutyrate binding. As for the experimental part: Competitive binding assays were conducted as described by Goodwin and Weinberg (J. Clin. Invest, 70, 699-706, 1982 and Ebling et al (ibid.). Approximately 1×10^6 cells/ml were incubated with 12 nM [^3 H]phorbol dibutyrate (8.3 Ci/mmol) and varying concentrations of sphinganine (1:1 with BSA) for 1 h at 37°. The cells were recovered on Millipore filters, washed, and counted. The data were corrected for nonspecific binding by subtracting the cpm obtained in the presence of 300 nM PMA.

Data set [3] concerns HL-60 cells. Put plainly: Dioctanoylglycerol-induced attachment of HL-60 cells. The settings on record: Homo sapiens. The format is cell-based. On the procedure:
When 1,2-dioctanoylglycerol was used, the cells were treated essentially as described by Ebling et al Proc. Natl. Acad. Sci. U.S.A. 82, 815-819, 1985. Sphinganine was added to the cells, then dioctanoylglycerol in 1 μl of ethanol to yield 100 μM, followed by additional maintenance additions of 20 μm diacylglycerol every 2 h for 12 h.

Data set [4] deals with HL-60 cells. Put plainly: Acid phosphatase activities of suspended and attached HL-60 cells. The class given is cell-based, human. As for the experimental part: Cells were centrifuged at 600 g for 3 min, and added at 1×10^5 cells per well in 12-well culture dishes. Medium, PMA, and long-chain bases (prepared as the 1:1 molar complex with fatty acid-free bovine serum albumin) at the indicated concentrations were added for a total volume of 2.0 ml. After the desired times, the cells in suspension were counted and checked for viability (trypan blue exclusion) with a hemacytometer. The attached cells were quantitated by measuring DNA content according to the method of West et al (Anal. Biochem., 147, 289-295, 1985) and by assaying for acid phosphatase according to the method of Schnyder (J. Exp. Med., 148, 434-445, 1978).

A further data set concerns human platelets. Put plainly: [3H]PDBu binding to human platelets. On the procedure: Human platelets, prepared as described above, were suspended at a concentration of 2.5×10^8 platelet/ml. 50 μl of the platelets were then incubated for five minutes with the indicated concentration of sphingosine in Eppendorf microfuge tubes. Sphingosine was prepared in 50% ethanol at a concentration 100-fold the final concentration so that ethanol was kept at 0.5%. [^3 H]PDBu was added to 10 nM and incubated with the platelets at 37° for 10 minutes. The samples were then filtered on Whatman GF/C filters pre-washed with 5 ml of modified Tyrode's buffer containing 0.1% bovine serum albumin, washed with 10 ml of the same buffer, dried, and counted in 10 ml of Aquasol II in an LKB beta counter. Non-specific binding was determined in the presence of 1 μM unlabelled PDBu and subtracted from the total counts to yield the specific binding.

Setting [5] is: 8 nM PMA, 1 μM sphinganine, 24 h.
Setting [6] is: 8 nM PMA, 1 μM sphinganine, 72 h.
Where [7] appears, read: 8 nM PMA, 2.5 μM sphinganine, 24 h.
The mark [8] stands for this setting: 8 nM PMA, 2.5 μM sphinganine, 72 h.
The mark [9] stands for this setting: 8 nM PMA, 5 μM sphinganine, 24 h.
Where [10] appears, read: 8 nM PMA, 5 μM sphinganine, 72 h.
Setting [11] is: No PMA, 2.5 μM sphinganine, 24 h.
The mark [12] stands for this setting: No PMA, 2.5 μM sphinganine, 72 h.

SMILES strings stand for the structures.

For `CCCCCCCCCCCCCCC[C@@H](O)[C@@H](N)CO` (relative stereo) [Sphinganine, erythro-dihydrosphingosine], the “time in which approximately half of the sphinganine was taken up from the medium by the cells” value in the data set on HL-60 cells [1] ([3H]sphinganine, HL-60 cells, 37°) was ≤ 6 h. Also, the “free [3H]sphinganine associated with the cells” value is given as 0.07 nmol with HL-60 cells [1] (day 2) and 0.06 nmol in the data set with HL-60 cells [1] (day 3). Also, the IC50 in data set [2] is ~15 µM; in the data set with HL-60 cells [3] (100 μM dioctanoylglycerol, maintenance doses 20 μM every 2 h, read-out: concentration reducing dioctanoylglycerol-induced adherence by 50%) it was ~5 µM. In addition, the activity at 1 µM in the data set with HL-60 cells [3] (1.0 μM sphinganine, compared to cells treated with diacylglycerol only, read-out: % Viable cells attached) worked out at 70 ± 32%. In addition, the activity at 2.5 µM with HL-60 cells [3] (2.5 μM sphinganine, compared to cells treated with diacylglycerol only, read-out: % Viable cells attached) turned out to be 63 ± 21%. The activity at 5 µM in the data set on HL-60 cells [3] (5.0 μM sphinganine, compared to cells treated with diacylglycerol only, read-out: % Viable cells attached) is 50 ± 25%. The “Acid phosphatase activity, Adherent” value was found to be 0.44 ± 0.11 nmol/h/dish in the data set with HL-60 cells [4] (setting [5]); 2.95 ± 0.62 nmol/h/dish in the data set with HL-60 cells [4] (setting [6]); 0.30 ± 0.04 nmol/h/dish with HL-60 cells [4] (setting [7]); 3.10 ± 0.30 nmol/h/dish in the data set on HL-60 cells [4] (setting [8]); 0.14 ± 0.04 nmol/h/dish in the data set with HL-60 cells [4] (setting [9]); 0.82 ± 0.38 nmol/h/dish in the data set with HL-60 cells [4] (setting [10]). In addition, the “Acid phosphatase activity, Adherent” value in the data set with HL-60 cells [4] (No PMA, 1 μM sphinganine, 24 h) is 0.06 ± 0.03 nmol/h/dish; in the data set with HL-60 cells [4] (No PMA, 1 μM sphinganine, 72 h), 0.05 ± 0.03 nmol/h/dish; with HL-60 cells [4] (setting [11]), 0.06 ± 0.02 nmol/h/dish; in the data set on HL-60 cells [4] (setting [12]), 0.05 ± 0.02 nmol/h/dish; in the data set on HL-60 cells [4] (No PMA, 5 μM sphinganine, 24 h), 0.04 ± 0.01 nmol/h/dish; in the data set on HL-60 cells [4] (No PMA, 5 μM sphinganine, 72 h), 0.04 ± 0.01 nmol/h/dish. The “Acid phosphatase activity, Suspended” value in the data set on HL-60 cells [4] (setting [5]) was determined as 0.22 ± 0.07 nmol/h/dish; in the data set with HL-60 cells [4] (setting [6]) it was 0.05 ± 0.01 nmol/h/dish; in the data set on HL-60 cells [4] (setting [7]), 0.49 ± 0.28 nmol/h/dish; in the data set with HL-60 cells [4] (setting [8]), 0.06 nmol/h/dish; in the data set on HL-60 cells [4] (setting [10]), 0.12 ± 0.08 nmol/h/dish; in the data set with HL-60 cells [4] (No PMA, 1 μM sphinganine, 24 h), 1.53 ± 0.01 nmol/h/dish. Moreover, the “Acid phosphatase activity, Suspended” value with HL-60 cells [4] (No PMA, 1 μM sphinganine, 72 h) came out at 2.77 ± 0.25 nmol/h/dish; in the data set on HL-60 cells [4] (setting [11]), 1.25 ± 0.16 nmol/h/dish; in the data set on HL-60 cells [4] (setting [12]), 2.35 ± 0.11 nmol/h/dish; with HL-60 cells [4] (No PMA, 5 μM sphinganine, 24 h), 0.91 ± 0.16 nmol/h/dish; with HL-60 cells [4] (No PMA, 5 μM sphinganine, 72 h), 0.24 ± 0.01 nmol/h/dish. For the same compound, the “Adherence (% of total)” value in the data set with HL-60 cells [4] (setting [5]) is 67 % of total; in the data set on HL-60 cells [4] (setting [7]), 38 % of total; in the data set on HL-60 cells [4] (setting [9]), 21 % of total; in the data set with HL-60 cells [4] (No PMA, 1 μM sphinganine, 24 h) it was 4 % of total; in the data set with HL-60 cells [4] (setting [11]) it was 5 % of total; in the data set on HL-60 cells [4] (No PMA, 5 μM sphinganine, 24 h), 4 % of total. Also, the “Acid phosphatase activity, Adherent (%)” value in the data set with HL-60 cells [4] (setting [6]) worked out at 98%; with HL-60 cells [4] (setting [8]) it was 98%; in the data set on HL-60 cells [4] (setting [10]) it was 87%; in the data set on HL-60 cells [4] (No PMA, 1 μM sphinganine, 72 h) it was 2%; in the data set on HL-60 cells [4] (setting [12]), 2%; with HL-60 cells [4] (No PMA, 5 μM sphinganine, 72 h), 14%.

Consider `CCCCCCCCCCCCC/C=C/[C@@H](O)[C@@H](N)CO` [sphingosine], for which, in the data set with human platelets, the “inhibition of [3H]PDBu binding to whole human platelets” value was “able to inhibit this binding”.

These data come from patent US4937232A, “Inhibition of protein kinase C by long-chain bases” (priority 1988, dated 1990).
